Assay results published in BindingDB's records for doi:10.1021/bi030031h (Medical College of Ohio, 2003).

Biological target: T1, Glycine--tRNA ligase (Bombyx mori, UniProt Q04451)
T1 sequence (Q04451 whole entry): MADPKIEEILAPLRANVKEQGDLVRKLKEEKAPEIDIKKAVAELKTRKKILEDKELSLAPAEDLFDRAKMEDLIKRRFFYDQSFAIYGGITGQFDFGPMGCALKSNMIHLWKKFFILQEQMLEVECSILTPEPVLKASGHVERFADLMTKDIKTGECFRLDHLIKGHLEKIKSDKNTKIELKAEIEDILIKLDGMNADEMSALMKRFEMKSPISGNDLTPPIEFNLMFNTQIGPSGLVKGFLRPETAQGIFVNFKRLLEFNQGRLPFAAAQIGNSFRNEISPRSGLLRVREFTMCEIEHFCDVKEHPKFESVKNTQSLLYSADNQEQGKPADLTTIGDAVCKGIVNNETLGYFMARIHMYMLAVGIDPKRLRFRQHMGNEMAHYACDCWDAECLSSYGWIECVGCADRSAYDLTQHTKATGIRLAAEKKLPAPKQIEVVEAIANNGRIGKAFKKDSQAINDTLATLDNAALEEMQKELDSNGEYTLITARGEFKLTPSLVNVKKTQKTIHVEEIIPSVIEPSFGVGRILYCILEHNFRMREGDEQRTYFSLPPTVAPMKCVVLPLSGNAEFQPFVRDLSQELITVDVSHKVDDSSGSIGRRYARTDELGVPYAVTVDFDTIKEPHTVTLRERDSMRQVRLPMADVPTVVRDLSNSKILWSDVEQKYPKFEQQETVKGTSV
Assay: In Vitro Enzyme Activity Assay
Conditions: pH 7.5; 25 °C
Source text: Aminoacyl-tRNA synthetase assays were measuring the incorporation of [14C] amino acid into tRNA.

Kd [µM] | SMILES | IC50 [µM] | Ki [µM]
– | Nc1ncnc2c1ncn2[C@@H]1O[C@H](COP(=O)(O)OP(=O)(O)OP(=O)(O)O)[C@@H](O)[C@H]1O | 100 | 13
0.27 | NCC(=O)NS(=O)(=O)OC[C@H]1O[C@@H](n2cnc3c(N)ncnc32)[C@H](O)[C@@H]1O [5-O-[N-(L-glycyl)sulfamoyl]adenosine] | 2 | 0.05
– | Nc1ncnc2c1ncn2[C@@H]1O[C@H](COP(=O)(O)OP(=O)(O)NP(=O)(O)O)[C@@H](O)[C@H]1O [AMP.P[NH]P] | 100 | 20
– | Nc1ncnc2c1ncn2[C@@H]1O[C@H](COP(=O)(O)O)[C@@H](O)[C@H]1O [adenosine 5 -monophosphate] | 800 | 80
– | Nc1ncnc2c1ncn2[C@@H]1O[C@H](COP(=O)(O)OP(=O)(O)CP(=O)(O)O)[C@@H](O)[C@H]1O [adenylylmethylenediphosphonate] | 10 | 0.8
– | Nc1ncnc2c1ncn2[C@@H]1O[C@H](COP(=O)(O)CP(=O)(O)O)[C@@H](O)[C@H]1O [alpha, beta-methyleneadenosine 5 -diphosphate] | 600 | 60
